Where two headings read alike, the source gives them in different places.
Key:
[1] = biological target: T1, horse serum butyrylcholinesterase (Equine BchE) (Equus caballus, UniProt P81908); experiment: BchE inhibition assay; assay type: biochemical
T1 construct: using horse serum butyrylcholinesterase (Equine BchE; CAS#9001-08-5); tissue CAS#9001-08-5; host or cells: horse serum
Experimental: The in vitro butyrylcholinesterase (BchE) inhibitory activity of the isolated polyacetylenes was determined according to the published method, using horse serum butyrylcholinesterase (Equine BchE; CAS#9001-08-5) with a slight change. To create a useful stock solution, the materials were dissolved in DMSO. The maximal DMSO concentration was 0.1%, and twelve sample concentrations (ranging from […]) were created by two-fold serial dilution in Tris buffer (pH 8.0).
(§1) The IC50 values were represented as means (± SD) from triplicates of two independent experiments.

[2] = biological target: T2, COX-2 (Homo sapiens, UniProt P35354); experiment: COX-2 inhibition assay (fluorometric inhibitor screening kit); assay type: biochemical
T2 construct: purchased BioVision K547-100
T2 sequence (P35354 18-604): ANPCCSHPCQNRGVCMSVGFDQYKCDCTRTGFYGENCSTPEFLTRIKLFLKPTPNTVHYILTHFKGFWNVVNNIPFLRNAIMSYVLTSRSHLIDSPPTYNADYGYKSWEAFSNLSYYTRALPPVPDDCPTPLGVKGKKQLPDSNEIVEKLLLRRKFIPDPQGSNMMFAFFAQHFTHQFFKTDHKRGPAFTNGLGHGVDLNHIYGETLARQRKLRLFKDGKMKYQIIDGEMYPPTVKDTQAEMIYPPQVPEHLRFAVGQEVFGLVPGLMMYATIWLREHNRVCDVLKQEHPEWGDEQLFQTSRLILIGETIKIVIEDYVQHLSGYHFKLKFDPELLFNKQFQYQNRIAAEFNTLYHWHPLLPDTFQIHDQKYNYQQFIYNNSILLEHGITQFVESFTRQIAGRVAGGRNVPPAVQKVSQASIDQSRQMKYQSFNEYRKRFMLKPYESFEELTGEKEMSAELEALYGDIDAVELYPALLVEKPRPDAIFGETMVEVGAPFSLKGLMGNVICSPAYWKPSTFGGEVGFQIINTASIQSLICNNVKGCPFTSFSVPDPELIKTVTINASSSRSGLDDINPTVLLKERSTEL
Experimental: The fluorometric approach was used to measure the in vitro cyclooxygenase (COX-2) inhibitory activity. It was carried out in accordance with the COX-2 Inhibitor Screening Kit methodology, as advised by the manufacturer (CAT # K547-100, BioVision, Milpitas, CA, USA). The sample solutions were prepared in the manner described before providing twelve concentrations (ranging from […]).
as §1

[3] = biological target: T3, 5-LOX (Homo sapiens, UniProt P09917); experiment: 5-LOX inhibition assay (fluorometric inhibitor screening kit); assay type: biochemical
T3 construct: purchased BioVision K980-100
T3 sequence (P09917 1-674): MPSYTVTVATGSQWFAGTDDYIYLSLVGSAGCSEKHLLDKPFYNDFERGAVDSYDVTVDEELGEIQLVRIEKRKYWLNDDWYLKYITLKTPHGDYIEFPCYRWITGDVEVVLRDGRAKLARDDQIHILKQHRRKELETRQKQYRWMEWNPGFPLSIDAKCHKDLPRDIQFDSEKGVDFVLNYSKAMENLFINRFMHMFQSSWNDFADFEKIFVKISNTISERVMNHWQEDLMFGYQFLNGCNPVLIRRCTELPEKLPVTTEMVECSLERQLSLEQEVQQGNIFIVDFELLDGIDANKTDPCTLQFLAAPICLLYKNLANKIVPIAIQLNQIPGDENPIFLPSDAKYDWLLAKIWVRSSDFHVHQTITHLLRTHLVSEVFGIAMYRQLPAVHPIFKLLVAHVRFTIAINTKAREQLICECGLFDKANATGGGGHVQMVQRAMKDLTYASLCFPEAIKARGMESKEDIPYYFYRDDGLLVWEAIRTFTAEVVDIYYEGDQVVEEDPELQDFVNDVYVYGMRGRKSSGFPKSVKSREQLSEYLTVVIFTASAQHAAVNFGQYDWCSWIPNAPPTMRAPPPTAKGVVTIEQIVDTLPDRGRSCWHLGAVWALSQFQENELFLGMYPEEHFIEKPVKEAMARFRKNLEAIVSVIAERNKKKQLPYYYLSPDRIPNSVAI
Experimental: The fluorometric approach was used to test the 5-LOX enzyme, in accordance with the manufacturer’s instructions, by using the enzyme’s inhibitor screening kit (CAT # K980-100, BioVision, Milpitas, CA, USA) to evaluate the 5-lipoxygenase (5-LOX) inhibitory activity in vitro [18, 45, 46]. Twelve concentrations (ranging from […]) were prepared by serial dilution method.
as §1

[4] = biological target: T3, 5-LOX; details: read-out: inhibitory activity against 5-LOX; cited from earlier work
[5] = tested on: COX-1; details: read-out: inhibitory activity against COX-1; cited from earlier work

T1 sequence (P81908 whole entry): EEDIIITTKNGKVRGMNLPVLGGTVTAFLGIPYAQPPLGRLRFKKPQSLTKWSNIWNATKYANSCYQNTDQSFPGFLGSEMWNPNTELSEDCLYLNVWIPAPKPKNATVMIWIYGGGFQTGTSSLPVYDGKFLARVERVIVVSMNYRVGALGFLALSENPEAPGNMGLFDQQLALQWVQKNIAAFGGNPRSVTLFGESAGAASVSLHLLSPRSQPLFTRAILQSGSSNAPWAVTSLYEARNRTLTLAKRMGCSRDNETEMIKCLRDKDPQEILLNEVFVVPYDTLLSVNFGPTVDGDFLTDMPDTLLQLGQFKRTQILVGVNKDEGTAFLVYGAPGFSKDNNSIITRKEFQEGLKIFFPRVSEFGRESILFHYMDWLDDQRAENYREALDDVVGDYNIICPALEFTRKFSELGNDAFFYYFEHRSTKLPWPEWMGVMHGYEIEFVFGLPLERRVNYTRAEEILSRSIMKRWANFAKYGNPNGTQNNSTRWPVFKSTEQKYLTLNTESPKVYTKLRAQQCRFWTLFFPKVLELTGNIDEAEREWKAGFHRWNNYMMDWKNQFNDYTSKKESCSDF

| SMILES | IC50 [1] | IC50 [2] | IC50 [3] | IC50 against COX-2 ([2]; in vitro, mean ± SD, triplicates of two independent experiments) | IC50 [4] | IC50 [5] | IC50 ([2]; in vitro, mean ± SD, triplicates of two independent experiments, read-out: IC50 against COX-2) |
| --- | --- | --- | --- | --- | --- | --- | --- |
| C/C=C/C#CC#C/C=C/CC[C@@H](CCO)O[C@@H]1O[C@H](CO)[C@@H](O)[C@H](O)[C@H]1O [Compound 4, (3S)-(6E,12E)-tetradecadiene-8,10-diyne-1-ol-3-O-β-D-glucopyranoside] | 14.8 ± 1.55 µM | 146 ± 7.7 µM | 34.6 ± 4.26 µM |  |  |  |  |
| C/C=C/C#CC#C/C=C/CC[C@H](O)CCO [Compound 2, (3S)-(6E,12E)-tetradecadiene-8,10-diyne-1,3-diol] | 179 ± 15.6 µM | > 200 µM | > 200 µM | inactive |  |  |  |
| C/C=C/C#CC#C/C=C/C=C\CCOC(=O)/C=C/c1ccc(O)c(OC)c1 [(3Z,5E,11E)-tridecatriene-7,9-diynyl-1-O-(E)-ferulate] |  |  |  |  | 3.4 µM | 1.1 µM |  |
| CC(Cc1ccc(O)c(O)c1)C(C)Cc1ccc(O)c(O)c1 (stereo not shown) [NDGA, nordihydroguaiaretic acid, reference compound] |  |  |  |  |  |  | 4.7 ± 0.76 µM |

Source: article PMC10145610, “In Vitro and In Silico Investigation of Polyacetylenes from Launaea capitata (Spreng.) Dandy as Potential COX-2, 5-LOX, and BchE Inhibitors” (Molecules, 2023)
